{"source": "ChEMBL document CHEMBL1142480", "about": "“Use of the X-ray structure of the beta2-adrenergic receptor for drug discovery. Part 2: Identification of active compounds” (Bioorg Med Chem Lett, 2008)", "data": [{"biological_target": "Beta-2 adrenergic receptor (Homo sapiens, UniProt P07550)", "sequence (P07550 whole entry)": "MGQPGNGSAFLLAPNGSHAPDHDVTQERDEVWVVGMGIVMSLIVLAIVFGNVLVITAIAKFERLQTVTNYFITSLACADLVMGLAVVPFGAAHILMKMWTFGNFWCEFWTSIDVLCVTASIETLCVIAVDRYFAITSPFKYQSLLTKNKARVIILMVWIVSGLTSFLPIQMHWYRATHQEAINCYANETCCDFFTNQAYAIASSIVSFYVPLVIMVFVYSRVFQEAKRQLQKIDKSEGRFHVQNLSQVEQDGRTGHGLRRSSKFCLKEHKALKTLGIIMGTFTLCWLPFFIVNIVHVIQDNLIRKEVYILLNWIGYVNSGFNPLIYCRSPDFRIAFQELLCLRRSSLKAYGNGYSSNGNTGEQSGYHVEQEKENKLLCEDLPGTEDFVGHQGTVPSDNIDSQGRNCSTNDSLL", "units": {"Ki": "nM"}, "description": "Displacement of [3H]DHA from human beta2 adrenoceptor by liquid scintillation counter", "values": [{"smiles": "N#Cc1cc2c(OCC(O)CN3CCN(C(c4ccccc4)c4ccccc4)CC3)cccc2[nH]1", "note": "(centres undefined)", "Ki": 57.3}, {"smiles": "Cc1c[nH]c2cccc(OCC(O)CN3CCN(C(c4ccccc4)c4ccccc4)CC3)c12", "note": "(centres undefined)", "Ki": 0.311}, {"smiles": "CC(C)(C)NCC(O)COc1cccc2oc3ccccc3c12", "note": "(centres undefined)", "Ki": 0.145}, {"smiles": "CC(C)(C)NCC(O)COc1cccc2[nH]cc(CC(N)=O)c12", "note": "(centres undefined)", "Ki": 23.5}]}]}
